# Measurements from US20070134261A1, “Effectors of innate immunity” (priority 2001, published 2007).
# Like-named read-outs stand apart in the source and are kept apart here. Marks after values point to notes of the source that are not given here. Residues, ends and D or L forms follow the SMILES beside them.
# Key:
# S. Typhimurium SL1344 = experiment: Intracellular survival/replication of S. Typhimurium SL1344 in IFN-γ-primed RAW cells (gentamicin-resistance assay); format: cell-based, Salmonella Typhimurium; details: pretreated with inhibitor 30 min prior to infection (50 μM U 0126, 50 μM PD 98059)
# [1] = tested on: RAW 264.7 mouse macrophage cells; format: cell-based; details: Peptide 20 μg/ml; 100 ng/ml E. coli 0111:B4 LPS, 6 h
# Salmonella = Salmonella infection in BALB/c mice (viable bacteria in spleen); format: in vivo, mouse; details: mouse, in vivo, ip
# Protocol: (§1) BALB/c mice were given 1×10^5 Salmonella and cationic peptide (200 μg) by intraperitoneal injection. The mice were monitored for 24 hours at which point they were euthanized, the spleen removed, homogenized and resuspended in PBS and plated on Luria Broth agar plates with Kanamycin (50 μg/ml). The plates were incubated overnight at 37° C. and counted for viable bacteria (Table 49 and 50). CD-1 mice were given 1×10^8 S. aureus in 5% porcine mucin and cationic peptide (200 μg) by intraperitoneal injection (Table 51). The mice were monitored for 3 days at which point they were euthanized, blood removed and plated for viable counts. CD-1 male mice were given 5.8×10^6 CFU EHEC bacteria and cationic peptide (200 μg) by intraperitoneal (IP) injection and monitored for 3 days (Table 52). […] Many of the cationic peptides were shown not to be directly antimicrobial as tested by the Minimum Inhibitory Concentration (MIC) assay (Table 54).
# BALB/c mice = experiment: Lethal endotoxemia in galactosamine-sensitized BALB/c mice; format: in vivo; details: 2 μg LPS; peptide 200 μg/mouse = 8 mg/kg IP 15 min after LPS; 48 hours; no peptide 10
# [2] = format: cell-based
# S. aureus = experiment: Murine S. aureus infection model (CD-1 mice); format: in vivo, mouse; details: peptide 200 μg IP; for CFU/ml (blood): 3 days, No Peptide 7.61 ± 1.7 × 10^3; for # Mice Survived (3 days)/Total mice in group: No Peptide 6/8
# Protocol: as §1
# HBE cells = experiment: WST-1 assay (cell viability); format: cell-based, human
# Protocol: (§2) The potential toxicity of the peptides was measured in two ways. First, the Cytotoxicity Detection Kit (Roche) (Lactate dehydrogenase-LDH) Assay was used. It is a colorimetric assay for the quantification of cell death and cell lysis, based on the measurement of LDH activity released from the cytosol of damaged cells into the supernatant. LDH is a stable cytoplasmic enzyme present in all cells and it is released into the cell culture supernatant upon damage of the plasma membrane. An increase in the amount of dead or plasma membrane-damaged cells results in an increase of the LDH enzyme activity in the culture supernatant as measured with an ELISA plate reader, OD490 nm (the amount of color formed in the assay is proportional to the number of lysed cells). In this assay, human bronchial epithelial cells (I6HBEo14, HBE) cells were incubated with 100 μg of peptide for 24 hours, the supernatant removed and tested for LDH. The other assay used to measure toxicity of the cationic peptides was the WST-1 assay (Roche). This assay is a colorimetric assay for the quantification of cell proliferation and cell viability, based on the cleavage of the tetrazolium salt WST-1 by mitochondrial dehydrogenases in viable cells (a non-radioactive alternative to the [^3H]-thymidine incorporation assay). In this assay, HBE cells were incubated with 100 μg of peptide for 24 hours, and then 10 μl/well Cell Proliferation Reagent WST-1 was added. The cells are incubated with the reagent and the plate is then measured with an ELISA plate reader, OD490 nm.
# [3] = tested on: human bronchial epithelial cells (HBE); experiment: LDH release assay (Cytotoxicity Detection Kit); format: cell-based; details: 100 μg/ml, 24 hours; no peptide control 1.0 ± 0.05
# Protocol: as §2
# [4] = tested on: A549 human epithelial cells; experiment: Induction of chemokines (IL-8, MCP-1) in A549 cells (ELISA); format: cell-based; details: peptide 10 ug/ml, 24 hr
# Protocol: The murine macrophage cell line RAW 264.7, THP-1 cells (human monocytes), a human epithelial cell line (A549), human bronchial epithelial cells (16HBEo14), and whole human blood were used. HBE cells were grown in MEM with Earle's. THP-1 cells were grown and maintained in RPMI 1640 medium. The RAW and A549 cell lines were maintained in DMEM supplemented with 10% fetal calf serum. […] DMEM was aspirated from cells grown overnight and replaced with fresh medium. After incubation of the cells with peptide, the release of chemokines into the culture supernatant was determined by ELISA (R&D Systems, Minneapolis, Minn.).
# A549 epithelial cells = experiment: Human Operon arrays (PRHU04-S1) of A549 cells treated with peptide alone (Tables 31-37, 53); details: 50 μg/ml, 4 h
# [5] = Staphylococcus aureus, overnight, 96-well plate
smiles,measurement,setting,value
COc1cccc(-c2cc(=O)c3ccccc3o2)c1N [PD 98059],Effect: bacterial filamentation (bacterial stress),S. Typhimurium SL1344,Decrease bacterial filamentation (bacterial stress)^c
same,Effect: number of intracellular S. Typhimurium,S. Typhimurium SL1344,Increase in the number of intracellular S. Typhimurium
CC[C@H](C)[C@H](NC(=O)[C@H](CCCNC(=N)N)NC(=O)[C@H](CS)NC(=O)[C@H](CC(C)C)NC(=O)[C@@H](N)CC(C)C)C(=O)N[C@H](C(=O)N1CCC[C@H]1C(=O)N[C@H](C(=O)N[C@H](C(=O)N1CCC[C@H]1C(=O)N[C@@H](Cc1c[nH]c2ccccc12)C(=O)N[C@@H](CS)C(=O)N[C@@H](CCCCN)C(=O)O)[C@@H](C)CC)C(C)C)C(C)C [SEQ ID NO: 5] (H-LLCRIVPVIPWCK-OH; N-terminus and C-terminus assumed),Inhibition of TNF-α,[1],65.6 ± 1.6%
same,Viable Bacteria in the Spleen,Salmonella,2.75 ± 0.59 × 10^4 CFU/ml
same,Survival,BALB/c mice,17%
same,"MIC, C. rhod.",[2]; 24 h,64 µg/mL
same,"MIC, E. coli",[2]; 24 h,128 µg/mL
same,"MIC, EHEC",[2]; 24 h,64 µg/mL
same,"MIC, S. aureus",[2]; [5],>
same,CFU/ml (blood),S. aureus,3.28 ± 1.7 × 10^3 CFU/ml
same,# Mice Survived (3 days)/Total mice in group,S. aureus,4/4
CC[C@H](C)[C@H](NC(=O)[C@H](CS)NC(=O)[C@H](CCSC)NC(=O)[C@H](CCCNC(=N)N)NC(=O)[C@@H](N)CCCNC(=N)N)C(=O)N[C@@H](CCCCN)C(=O)N[C@H](C(=O)N[C@@H](CS)C(=O)N[C@H](C(=O)N[C@@H](CCCNC(=N)N)C(=O)NCC(=O)N[C@H](C(=O)N[C@@H](CS)C(=O)N[C@@H](CCCNC(=N)N)C(=O)N[C@@H](CCCNC(=N)N)C(=O)N[C@@H](CCCCN)C(=O)N[C@@H](CS)C(=O)N[C@@H](CCCNC(=N)N)C(=O)N[C@@H](CCCCN)C(=O)O)C(C)C)C(C)C)C(C)C [SEQ ID NO: 26] (H-RRMCIKVCVRGVCRRKCRK-OH; N-terminus and C-terminus assumed),Inhibition of TNF-α,[1],54.9 ± 1.6%
same,Viable Bacteria in the Spleen,Salmonella,7.1 ± 1.37 × 10^4 CFU/ml
same,OD490 nm (WST-1 cell viability),HBE cells,1.42 ± 0.11 OD490 nm
same,LDH Release (OD490 nm),[3],0.93 ± 0.04 OD490 nm
same,Survival,BALB/c mice,0%
same,"MIC, C. rhod.",[2]; 24 h,2 µg/mL
same,"MIC, E. coli",[2]; 24 h,0.5 µg/mL
same,"MIC, EHEC",[2]; 24 h,0.5 µg/mL
same,"MIC, P. aerug.",[2]; 24 h,64 µg/mL
same,"MIC, S. aureus",[2]; 24 h,32 µg/mL
same,"MIC, S. typhim.",[2]; 24 h,2 µg/mL
same,IL-8,[4],0.201 ng/mL
CSCC[C@H](NC(=O)CNC(=O)[C@H](CCCNC(=N)N)NC(=O)[C@H](CCSC)NC(=O)[C@H](C)NC(=O)[C@@H](NC(=O)[C@H](CCCCN)NC(=O)[C@@H](NC(=O)[C@H](CS)NC(=O)[C@H](CCC(N)=O)NC(=O)[C@@H](N)CCCCN)C(C)C)C(C)C)C(=O)N[C@@H](C)C(=O)N[C@@H](CC(C)C)C(=O)N[C@@H](CCCNC(=N)N)C(=O)N[C@@H](CCCNC(=N)N)C(=O)N[C@@H](CS)C(=O)N[C@@H](CCCCN)C(=O)O [SEQ ID NO: 30] (H-KQCVKVAMRGMALRRCK-OH; N-terminus and C-terminus assumed),Fold Up regulation of Gene Expression relative to Untreated Cells: Cell cycle gene (S70622),A549 epithelial cells,8.5 fold
same,Fold Up regulation of Gene Expression relative to Untreated Cells: Dehydrogenase (D17793),A549 epithelial cells,2.3 fold
same,Fold Up regulation of Gene Expression relative to Untreated Cells: Forkhead protein (AF042832),A549 epithelial cells,14.1 fold
same,Fold Up regulation of Gene Expression relative to Untreated Cells: Homeobox protein (AC004774),A549 epithelial cells,3.2 fold
same,Fold Up regulation of Gene Expression relative to Untreated Cells: Hypothetical Protein (AK002104),A549 epithelial cells,4.7 fold
same,Fold Up regulation of Gene Expression relative to Untreated Cells: Hypothetical Protein (AL022393),A549 epithelial cells,4.4 fold
same,Fold Up regulation of Gene Expression relative to Untreated Cells: IL-10 Receptor (U00672),A549 epithelial cells,2.6 fold
same,Fold Up regulation of Gene Expression relative to Untreated Cells: KIAA0284 Protein (AB006622),A549 epithelial cells,3.4 fold
same,Fold Up regulation of Gene Expression relative to Untreated Cells: Peroxisome factor (AB013818),A549 epithelial cells,3.4 fold
same,Fold Up regulation of Gene Expression relative to Untreated Cells: Polypeptide (AF105424),A549 epithelial cells,2.5 fold
same,Fold Up regulation of Gene Expression relative to Untreated Cells: Protein (AL050261),A549 epithelial cells,3.3 fold
same,Fold Up regulation of Gene Expression relative to Untreated Cells: Receptor (AF112461),A549 epithelial cells,2.4 fold
same,Fold Up regulation of Gene Expression relative to Untreated Cells: SPR1 protein (AB031480),A549 epithelial cells,3.0 fold
same,Fold Up regulation of Gene Expression relative to Untreated Cells: Transferase (AF038664),A549 epithelial cells,12.3 fold
same,Fold Up regulation of Gene Expression relative to Untreated Cells: Transferase (M63509),A549 epithelial cells,2.7 fold
same,Fold Up regulation of Gene Expression relative to Untreated Cells: Unknown (AL096803),A549 epithelial cells,4.8 fold
same,Fold Up regulation of Gene Expression relative to Untreated Cells: Zinc finger protein (AF061261),A549 epithelial cells,2.6 fold
same,Viable Bacteria in the Spleen,Salmonella,5.79 ± 0.43 × 10^3 CFU/ml
same,"MIC, C. rhod.",[2]; 24 h,16 µg/mL
same,"MIC, E. coli",[2]; 24 h,16 µg/mL
same,"MIC, EHEC",[2]; 24 h,4 µg/mL
same,"MIC, P. aerug.",[2]; 24 h,128 µg/mL
same,"MIC, S. typhim.",[2]; 24 h,16 µg/mL
same,"MIC, S. aureus",[2]; [5],>
same,IL-8,[4],0.284 ng/mL
same,CFU/ml (blood),S. aureus,1.29 ± 0.04 × 10^2 CFU/ml
same,# Mice Survived (3 days)/Total mice in group,S. aureus,4/4
